PMC3501123 (Journal of medicinal chemistry, 2012)

Columns and labels:
[1] = target: T1, human A1AR (Homo sapiens, UniProt P30542); assay: cAMP accumulation assay; format: cell-based; conditions: for agonist efficacy in cAMP accumulation assay: compared to compound 3, highest concentration tested; for effect of αβ-met-ADP on potency: inclusion of 10 μM αβ-met-ADP (NT5E/CD73 inhibitor)
T1 sequence (P30542 1-326): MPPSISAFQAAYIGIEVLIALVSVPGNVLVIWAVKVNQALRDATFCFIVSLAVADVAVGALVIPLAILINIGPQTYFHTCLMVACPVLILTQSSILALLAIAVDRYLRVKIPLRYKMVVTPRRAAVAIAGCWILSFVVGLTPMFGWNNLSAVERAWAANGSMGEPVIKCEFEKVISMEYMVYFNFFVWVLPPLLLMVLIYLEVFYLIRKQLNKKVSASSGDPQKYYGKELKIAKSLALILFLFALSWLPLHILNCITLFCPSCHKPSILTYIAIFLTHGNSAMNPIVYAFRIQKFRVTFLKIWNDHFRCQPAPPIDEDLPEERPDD

[2] = target: T2, human A3AR (Homo sapiens, UniProt P0DMS8); assay: radioligand binding assay
T2 sequence (P0DMS8 1-318): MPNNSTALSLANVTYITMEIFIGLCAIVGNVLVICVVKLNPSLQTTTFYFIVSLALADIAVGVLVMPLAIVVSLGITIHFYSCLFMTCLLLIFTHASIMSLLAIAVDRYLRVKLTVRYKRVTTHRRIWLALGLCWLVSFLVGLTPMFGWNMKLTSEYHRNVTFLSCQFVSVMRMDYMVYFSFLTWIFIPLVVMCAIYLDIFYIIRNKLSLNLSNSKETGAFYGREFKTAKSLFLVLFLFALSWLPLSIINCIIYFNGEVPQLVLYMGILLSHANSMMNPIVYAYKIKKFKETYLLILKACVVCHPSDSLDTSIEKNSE

[3] = test system: C57BL/6 mice; assay: telemetry of heart rate and body temperature; format: in vivo, mouse; conditions: 5000 nmol/kg, oral
[4] = target: T3, human A2BAR (Homo sapiens, UniProt P29275); assay: radioligand binding assay; conditions: read-out: % inhibition at A2B, 50 μM
T3 sequence (P29275 1-332): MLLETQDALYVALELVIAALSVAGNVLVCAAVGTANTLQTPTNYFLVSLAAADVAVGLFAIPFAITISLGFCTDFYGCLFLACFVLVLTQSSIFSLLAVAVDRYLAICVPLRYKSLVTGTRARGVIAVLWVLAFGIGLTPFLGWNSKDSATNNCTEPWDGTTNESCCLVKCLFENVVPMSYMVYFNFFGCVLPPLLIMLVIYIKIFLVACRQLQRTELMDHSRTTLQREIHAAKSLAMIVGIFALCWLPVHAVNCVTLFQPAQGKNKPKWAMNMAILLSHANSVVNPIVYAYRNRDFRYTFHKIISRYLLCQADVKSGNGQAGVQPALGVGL

[5] = target: T1, human A1AR; assay: Ca2+ mobilization assay with chimeric G proteins; format: cell-based; conditions: Emax normalized to Emax of adenosine
[6] = test system: C57BL/6 mice; assay: noxious thermal sensitivity, Hargreaves paw withdrawal latency; format: in vivo, mouse
[7] = target: human A2AAR (Homo sapiens, UniProt P29274); assay: radioligand binding assay
human A2AAR, sequence (P29274 whole entry): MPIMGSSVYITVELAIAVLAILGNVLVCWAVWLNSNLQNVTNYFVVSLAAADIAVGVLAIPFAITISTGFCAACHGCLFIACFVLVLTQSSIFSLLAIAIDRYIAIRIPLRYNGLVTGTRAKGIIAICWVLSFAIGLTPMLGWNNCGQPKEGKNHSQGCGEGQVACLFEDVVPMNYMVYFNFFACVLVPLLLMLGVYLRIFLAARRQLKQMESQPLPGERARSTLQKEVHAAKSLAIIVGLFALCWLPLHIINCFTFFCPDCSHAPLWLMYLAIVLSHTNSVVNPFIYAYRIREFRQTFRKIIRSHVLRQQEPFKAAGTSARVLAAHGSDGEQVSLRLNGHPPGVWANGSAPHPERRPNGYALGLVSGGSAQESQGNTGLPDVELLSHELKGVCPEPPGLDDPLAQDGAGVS

[8] = oral, 50, 500 or 5000 nmol/kg, wild-type mice

SMILES	agonist efficacy in cAMP accumulation assay [1]	effect of αβ-met-ADP on potency [1]	selectivity for A1AR over A3AR [2]	effect on body temperature ([3]; A1AR–/– mice)	effect on heart rate ([3]; A1AR–/– mice)	effect on body temperature ([3]; wild-type mice)	effect on heart rate ([3]; wild-type mice)	inhibition at 50 µM [4]	agonist efficacy in Ca2+ mobilization assay [5]	thermal antinociceptive effect in A1AR knockout mice ([6]; A1AR–/– mice, 5 nmol, IT injection)	effect on noxious thermal sensitivity ([6]; intrathecal (IT) or intravenous (IV) injection, mice)	effect on noxious thermal sensitivity [6, 8]	selectivity for A1AR over A2AAR [7]
Nc1ncnc2c1ncn2[C@@H]1O[C@H](CO)[C@@H](O)[C@H]1OP(=O)(O)O [2′-AMP, adenosine 2′-monophosphate]	full agonists	did not significantly alter the potencies	–	–	–	–	–	–	–	–	–	–	–
Nc1ncnc2c1ncn2[C@@H]1O[C@H](CO)[C@@H](OP(=O)(O)O)[C@H]1O [3′-AMP, adenosine 3′-monophosphate]	full agonists	did not significantly alter the potencies	–	–	–	–	–	–	–	–	–	–	–
COP(=O)(OC)OC[C@H]1O[C@@H](n2cnc3c(NC4CCCC4)nc(Cl)nc32)[C@H](O)[C@@H]1O [Compound 3a, ((2R,3S,4R,5R)-5-(2-Chloro-6-(cyclopentylamino)-9H-purin-9-yl)-3,4-dihydroxytetrahydrofuran-2-yl)methyl Dimethyl Phosphate]	full agonist	–	> 10 fold	negligible effects	negligible effects	negligible effects	negligible effects	< 10%	potent full agonists	completely abolished	marked and dose-dependent inhibition of noxious thermal sensitivity	dose-dependently inhibited noxious thermal sensitivity	> 100 fold
O=P([O-])([O-])OC[C@H]1O[C@@H](n2cnc3c(NC4CCCC4)nc(Cl)nc32)[C@H](O)[C@@H]1O.[Na+].[Na+] [Compound 3d, Sodium ((2R,3S,4R,5R)-5-(2-Chloro-6-(cyclopentylamino)-9H-purin-9-yl)-3,4-dihydroxytetrahydrofuran-2-yl)methyl Phosphate]	–	–	> 10 fold	–	–	–	–	–	potent full agonists	–	–	–	> 100 fold
OC[C@H]1O[C@@H](n2cnc3c(NC4CCCC4)ncnc32)[C@H](O)[C@@H]1O [Compound 5, N^6-cyclopentyl adenosine, reference compound]	–	–	–	but not in A1AR^–/– mice	modest increase in heart rate	statistically significant decrease	statistically significant decrease	–	–	–	–	effects of 3a were similar to 5	–
